In brackets after ≈: the same amount, converted by molar mass.
Assays:
mCys-Fos = biological target: T1, mCys-Fos (Homo sapiens, UniProt P01100, C204S); assay: Protein labeling in vitro, SDS-PAGE with UV illumination; assay type: biochemical; conditions: 0.242 mM protein, 0.5 mM of 20 or 0.05 mM of 13, 25° C. overnight
T1 construct: the C99S mutant of a fragment of Fos; His-tag (N); made in house; host or cells: XL1-blue E. coli
Method: (§1) As mentioned in the introduction, an α-helical protein was designed to bear two cysteine residues, separated by a distance complementary to that between the maleimide groups of the designated fluorogen. The protein chosen as a starting point for this design was the C99S mutant of a fragment of Fos,^21 a known α-helical protein^22 whose recombinant expression has been published.^23 Site-directed mutagenesis was then performed^20,35 to introduce a cysteine residue (L56C), separated by two turns of the α-helical motif from the native Cys49, positioning the protein's only two thiol groups approximately 10 Å apart.^36 Although at higher concentrations, Fos is known to form a homodimer,^22 the distance between the intermolecular cysteine residues in this putative homodimer would render their reaction with a single fluorogen molecule impossible. […]
(§2) Purified mCys-Fos and diCys-Fos were then tested in vitro for their ability to react with fluorogens 13 and 20. After incubation of 0.242 mM protein with 0.5 mM of 20 or 0.05 mM of 13 at 25° C. overnight, glycerol was added and the reaction mixtures were analyzed by SDS-PAGE using UV illumination and then Coomassie blue staining. […]

[1] = Fluorescence spectral properties of fluorogens and their ethanethiol adducts; assay type: physicochemical; conditions: 10:90 DMSO: water
Method: For the application of this fluorogenic reaction to the detection of thiols and dithiols, two important criteria are the fluorescence intensity of the thiol addition product and the ratio of its fluorescence compared to its parent fluorogen. We studied the effect of electron withdrawing and donating substituants on these criteria by preparing the derivatives of fluorogen 4 shown in Scheme 1. Fluorogen 5, bearing an electron withdrawing ester group, was prepared according to a protocol similar to that used for fluorogen 4, but using an ester-substituted maleic anhydride derived by oxidation of dimethyl L-tartrate according to a published procedure.^31 Fluorogen 6 bears an electron donating methyl group and was obtained in similar yield by adaptation of the standard literature protocol,^25 using citraconic anhydride. The reaction of 5 and 6 with ethanethiol in DMSO led to the formation of thiol adducts 8 and 9, whose fluorescence was characterized as shown in Table 1. Even from this small series, certain tendencies are apparent. Increasing the electron donating capacity of the substituent appears to have a significant effect on the absorbance maximum corresponding to the wavelength of excitation, increasing by 37 nm from 8 to 9. Although the emission wavelength increases very slightly over the same series, the net effect on the Stokes shift is a significant decrease with increasing electron donating capacity of the substituent.
(§3) Comparison of the fluorescent properties^34 of the four different parent fluorogens (and their corresponding thiol adducts) studied herein (see Table 2) substantiates our retention of compounds 13 and 20 as candidates for further tests with proteins.
The following material were obtained from Aldrich and were used without further purification: 2-hydroxy-5-nitrobenzaldehyde, N-acetylglycine, maleic anhydride, p-nitrophenylacetic acid, L-aspartic acid dimethyl ester hydrochloride, citraconic anhydride, dimethyl L-tartrate, dimethyl malonate. All reactions were carried out under an atmosphere of dry nitrogen employing conventional bench-top techniques except for reactions with thiols. ^13C-NMR and ^1H-NMR spectra were recorded on AMXR400 or AMX300 spectrometers and were referenced to the residual proton or ^13C signal of the solvent. Mass spectra were determined by FAB+ ionization on an AutoSpecQ spectrometer at the Regional Mass Spectrometry Centre at the Université de Montréal. Infrared spectra were recorded on a Perkin-Elmer (FTIR) spectrometer. Melting points (uncorrected) were determined on a Unimelt Tomas-Hoover or on a Gallenkamp meting point apparatus. Fluorescence spectra were recorded using a Varian Cary Eclipse fluorimeter and gel electrophoresis was carried out on a SpectraPhoresis 100 apparatus.

diCys-Fos [2] = biological target: T2, diCys-Fos (Homo sapiens, UniProt P01100, C204S/L161C); assay: Labeling in lysate of E. coli cells expressing diCys-Fos, SDS-PAGE; assay type: biochemical; conditions: overnight at 25° C.
T2 sequence (P01100 118-211 L161C/C204S limits assumed): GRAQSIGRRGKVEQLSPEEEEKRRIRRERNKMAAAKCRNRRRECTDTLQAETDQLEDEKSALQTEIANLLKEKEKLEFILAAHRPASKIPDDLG
Method: The specificity of the dithiol addition reaction of 20 with diCys-Fos in the presence of other proteins was also confirmed through a simple in vitro experiment. The lysate of E. coli cells expressing diCys-Fos was allowed to react with 20 overnight at 25° C. prior to analysis by SDS-PAGE.

Solubility = assay type: physicochemical
Method: as §3
(§4) Finally, we wished to determine if fluorogens such as 13 and 20 were cytotoxic. […] Furthermore, even at 300 μM 20, the limit of its solubility in cell culture, 70% of COS cells were still viable (FIG. 8). […] The convenience of the application of this fluorescent labeling method is obvious from the low cytoxocity of 20, even at concentrations 30 times greater than those necessary for efficient labeling.

diCys-Fos [3] = biological target: T2, diCys-Fos; assay: Protein labeling in vitro, SDS-PAGE with UV illumination; assay type: biochemical; design: the C99S mutant of a fragment of Fos; conditions: 0.242 mM protein, 0.5 mM of 20 or 0.05 mM of 13, 25° C. overnight
Method: as §1, §2

diCys-Fos [4] = biological target: T2, diCys-Fos; assay: Protein labeling in living COS cells expressing diCys-Fos fused to RBD of Raf; assay type: cell-based; design: the C99S mutant of a fragment of Fos; expressed in transfected cells; host or cells: COS cells
Method: The ultimate proof of principle for this method is its successful application to labeling a specific protein in living eukaryotic cells. To test for this potential, our diCys-Fos probe protein was genetically fused to RBD, the Ras-binding domain of Raf, and COS cells were then transfected with the expression plasmid for this fusion protein. A solution of 20 was then added to cultures of COS cells expressing diCys-Fos as well as mock COS cells transfected with an empty expression plasmid.

COS cells = assay: Cytotoxicity, MTT and PI assays; assay type: cell-based
Method: as §4

T1 sequence (P01100 118-211 C204S limits assumed): as the sequence (P01100 118-211 L161C/C204S limits assumed) above, with C44L counted along it

fluorescent labeling of mCys-Fos (mCys-Fos): is not
Stokes shift [1]: 67 nm
λem (emission band) [1]: 525-650 nm
λem, wavelength corresponding to center of Full Width at Half Maximum of emission band [1]: 578 nm
λexc [1]: 511 nm
IF Ratio ([1]; ratio of areas under emission bands of fluorogen and thiol adduct): 8.5
solubility (Solubility; cell culture, plasma or biological fluid, read-out: limit of solubility in cell culture): 300 µM (≈ 159 µg/mL)
fluorescent labeling of diCys-Fos (diCys-Fos [3]): efficiently fluorescently labeled
fluorescence of COS cells expressing diCys-Fos vs mock COS cells (diCys-Fos [4]; 10 μM, 20 minutes, room temperature): significant difference in fluorescence
cell permeability (diCys-Fos [4]; COS cells): confirming the cell permeability
Compound: COC(=O)C[C@@H](C(=O)OC)N1C(=O)c2cc(N3C(=O)C=CC3=O)cc3cc(N4C(=O)C=CC4=O)cc(c23)C1=O [Compound 20, N-(3,6-Dimaleimidyl-1,8-naphthalyl)-L-aspartic acid dimethyl ester]
selectivity for diCys-Fos in the presence of other cytosolic proteins (diCys-Fos [2]): selectivity of 20 for its designated target protein
solubility in water / aqueous DMSO (Solubility): soluble in aqueous solutions containing as little as 5% DMSO
viable COS cells (COS cells; 300 μM): 70%
concentration with low cytotoxicity relative to that necessary for efficient labeling (COS cells; COS cells): 30 times
percentage of viable COS cells (COS cells; concentrations of up to 30 μM): unaffected
